Where two headings read alike, the source gives them in different places.
Tested on: NSCLC patients
Settings: VeriStrat poor patients, SCR samples
Description: Briefly, by way of overview, 188 patients were enrolled in the study. Key entry criteria for the study were Stage III/IV NSCLC, treatment-naïve, adenocarcinoma histology, with the patients selected from an Asian population and being either non-smokers or light former smokers. Stratification of the population was based on Eastern Cooperative Oncology Group Performance Status (ECOG PS), smoking history, and gender.
In summary, we obtained pre-treatment serum samples from all 188 patients enrolled in the study described above. The samples were blinded and subject to MALDI-TOF mass-spectrometry. The resulting mass spectra were subject to predefined pre-processing steps, described below, and integrated intensity values at pre-defined m/z positions ranges, (i.e., feature values) in the pre-processed spectra were obtained. […]
The pre-treatment serum samples used in the foregoing analysis were largely derived from patient blood samples originally drawn immediately prior to drug dosing (hereafter called “C1D1” samples) in order to define baselines for drug pharmacokinetics and pharmacodynamics. Subsequently, a set of blood samples was analyzed, these being derived from blood draws taken from 1-12 days (median 4.4 days) prior to drug dosing (hereafter called “SCR” samples) for purposes of establishing patient eligibility for study with respect to blood chemistries.

SMILES: COc1cc2ncnc(Nc3ccc(F)c(Cl)c3)c2cc1OCCCN1CCOCC1 [gefitinib]
- median PFS (EGFR SM+ population): 4.1 months
- median PFS (ITT population): 2.7 months
